Test results taken from US20140322196A1 (priority 2011, published 2014).
Ends that are not written are not given here.

Key:
[1] = tested on: A/Parma/24/09 H1N1; conditions: read-out: EC50 (effective concentration 50%); A/Parma/24/09 H1N1, MDCK cells
[2] = tested on: A/Parma/05/06 H3N2; conditions: read-out: EC50 (effective concentration 50%); A/Parma/05/06 H3N2, MDCK cells
[3] = tested on: A/Roma-ISS/2/08 H1N1; conditions: read-out: EC50 (effective concentration 50%); A/Roma-ISS/2/08 H1N1, MDCK cells
[4] = Cytotoxicity assay; type: cell-based, canine; conditions: dog, MDCK cells, read-out: CC50 (cytotoxic concentration 50%)
Procedure: To establish the maximal non-cytotoxic dose of bLf and its derivatives, two-fold serial dilutions of each substance in culture medium were incubated at 37° C. with confluent MDCK cells grown in 96-well tissue culture microplates (Nalge Europe Ltd, Neerijse, Belgium). After 24 h, the following parameters were evaluated: cell morphology and viability (determined by neutral red staining) were examined by light microscopy and cell proliferation was evaluated quantitatively by microscopic counts after dispersion into individual cells with trypsin.

[5] = Peptide stability; type: physicochemical

Row | Sequence | EC50 [1] [nM] | EC50 [2] [nM] | EC50 [3] [nM] | CC50 at 24 h [4] [nM] | stability of the peptide (in words) [5]
1 | AGDDQGLDKCVPNSKEK [SEQ ID NO: 2, AGDDQGLDKCVPNSKEK] | 0.0034 | 0.0073 | 0.0037 | > 25000 | 
2 | NGESSADWAKN [SEQ ID NO: 4, NGESSADWAKN] |  | 0.0225 |  | > 25000 | 
3 | NGESTADWAKN (bovine lactoferrin peptide from 553 aa to 563 aa) [SEQ ID NO: 3, bLf C-lobe peptide, residues 553-563] |  |  |  |  | poor stability
4 | SKHSSLDCVLRP [SEQ ID NO: 1, SKHSSLDCVLRP] | 0.0031 | 0.0058 | 0.004 | > 25000 | 
